Publication PMC9143880, “Improving Antimicrobial Activity and Physico-Chemical Properties by Isosteric Replacement of 2-Aminothiazole with 2-Aminooxazole” (Pharmaceuticals, 2022)
≈ marks a conversion by molar mass, not a printed value. Where two headings read alike, the source gives them in different places.

What was measured:
[1] = tested on: Candida albicans CCM 8320 (ATCC 24433); experiment: Antifungal microdilution broth (EUCAST); details: Candida albicans, 24 h, read-out: MIC CA
[2] = tested on: M. aurum DSM 43999 (ATCC 23366); experiment: Antimycobacterial MIC, microdilution broth / resazurin; type: cell-based; details: Mycolicibacterium aurum; resazurin after 72 h; read-out: MIC M. aurum
[3] = tested on: Lichtheimia corymbifera CCM 8077; experiment: Antifungal microdilution broth (EUCAST); details: Lichtheimia corymbifera, CCM8077, 24 h, read-out: MIC LC
[4] = tested on: Staphylococcus aureus subsp. aureus (MRSA) CCM 4750 (ATCC 43300); experiment: Antibacterial microdilution broth (EUCAST); type: cell-based; details: Staphylococcus aureus; 24h incubation; read-out: MIC MRSA
[5] = tested on: M. smegmatis DSM 43465 (ATCC 607); experiment: Antimycobacterial MIC, microdilution broth / resazurin; type: cell-based; details: Mycolicibacterium smegmatis; resazurin after 48 h; read-out: MIC M. smegmatis
[6] = tested on: Candida parapsilosis CCM 8260 (ATCC 22019); experiment: Antifungal microdilution broth (EUCAST); details: Lodderomyces parapsilosis, 24 h, read-out: MIC CP
[7] = tested on: Acinetobacter baumannii DSM 30007 (ATCC 19606); experiment: Antibacterial microdilution broth (EUCAST); type: cell-based; details: Acinetobacter baumannii; 24h incubation; read-out: MIC AB
[8] = tested on: Candida tropicalis CCM 8264 (ATCC 750); experiment: Antifungal microdilution broth (EUCAST); details: Candida tropicalis, 24 h, read-out: MIC CT
[9] = tested on: Escherichia coli CCM 3954 (ATCC 25922); experiment: Antibacterial microdilution broth (EUCAST); type: cell-based; details: Escherichia coli; 24h incubation; read-out: MIC EC
HepG2 cells = experiment: HepG2 cytotoxicity screening (CellTiter 96); type: cell-based, human; details: for IC50: Homo sapiens, HepG2, 24 h, 24 h incubation, CellTiter 96, * above highest tested concentration, ** limited by insolubility in medium; for SI: SI = IC50 (µM) HepG2 / MICH37Ra (µM)
[10] = tested on: Staphylococcus aureus subsp. aureus CCM 4223 (ATCC 29213); experiment: Antibacterial microdilution broth (EUCAST); type: cell-based; details: Staphylococcus aureus; 24h incubation; read-out: MIC SA
[11] = tested on: Pseudomonas aeruginosa CCM 3955 (ATCC 27853); experiment: Antibacterial microdilution broth (EUCAST); type: cell-based; details: Pseudomonas aeruginosa; 72h incubation; read-out: MIC PA
[12] = tested on: Enterococcus faecalis CCM 4224 (ATCC 29212); experiment: Antibacterial microdilution broth (EUCAST); type: cell-based; details: Enterococcus faecalis; 24h incubation; read-out: MIC EF
[13] = tested on: Aspergillus flavus CCM 8363; experiment: Antifungal microdilution broth (EUCAST); details: Aspergillus flavus, CCM8363, 24 h, read-out: MIC AFla
[14] = tested on: Trichophyton interdigitale CCM 8377 (ATCC 9533); experiment: Antifungal microdilution broth (EUCAST); details: Trichophyton interdigitale, 72 h, read-out: MIC TI
[15] = tested on: M. avium DSM 44156 (ATCC 25291); experiment: Antimycobacterial MIC, microdilution broth / resazurin; type: cell-based, Mycobacterium avium; details: Mycobacterium avium; resazurin after 96 h; read-out: MIC M. avium
[16] = tested on: Aspergillus fumigatus ATCC 204305; experiment: Antifungal microdilution broth (EUCAST); details: Aspergillus fumigatus, ATCC204305, 24 h, read-out: MIC AF
[17] = tested on: Staphylococcus epidermidis CCM 4418 (ATCC 12228); experiment: Antibacterial microdilution broth (EUCAST); type: cell-based; details: Staphylococcus epidermidis; 24h incubation; read-out: MIC SE
[18] = tested on: Candida krusei CCM 8271 (ATCC 6258); experiment: Antifungal microdilution broth (EUCAST); details: Pichia kudriavzevii, 24 h, read-out: MIC CK
[19] = tested on: Mycobacterium tuberculosis H37Ra ITM-M006710 (ATCC 9431); experiment: Antimycobacterial MIC, microdilution broth / Alamar Blue (resazurin); type: cell-based; details: for MIC: Mycobacterium tuberculosis
[20] = tested on: M. kansasii DSM 44162 (ATCC 12478); experiment: Antimycobacterial MIC, microdilution broth / resazurin; type: cell-based; details: Mycobacterium kansasii, read-out: MIC M. kansasii
[21] = RP-UHPLC lipophilicity parameter log k’w; type: physicochemical; details: for log k’w: RP-UHPLC, acetonitrile/water, log k extrapolated to 0% acetonitrile; for logkw: experimental lipophilicity parameter
Text: Lipophilicity and water solubility of the drug candidates are important parameters as they are often directly related to their ADME properties in the organism. Lipophilicity is usually expressed as the logarithm of the partition coefficient in n-octanol/water (log P). Due to its laborious determination, especially in the HTS screening, other experimental methods such as RP-HPLC log k’w or purely computational approaches such as Clog P were proposed and have been established as reasonable estimators of true lipophilicity. To investigate the changes in lipophilicity upon introduction of oxazole in the title compounds, we determined the log k’w of all derivatives and compared respective values among the pairs.
The log k of the synthesized compounds was measured using the same instrument (single measurement per concentration), software, and column as was used in the purity evaluation. Working solutions were diluted as described above for purity determination. The log k parameter was calculated after the UHPLC measurements using isocratic mode with mobile phase acetonitrile (B)/water (A) in a set of concentrations of 40, 45, 50% and 20, 30, 40% B for subtype I and subtype II, respectively.

[22] = 120 h, Middlebrook 7H9, resazurin after 120 h, read-out: Mtb H37Ra MIC
[23] = recalculated from µg/mL, read-out: MICH37Ra
[24] = Middlebrook 7H9, resazurin after 120 h

Structure (SMILES)	MIC [1]	MIC [2]	MIC [3]	MIC [4]	MIC [5]	MIC [6]	melting point	MIC [7]	MIC [8]	MIC [9]	IC50 (HepG2 cells)	MIC [10]	MIC [11]	MIC [12]	MIC [13]	MIC [14]	MIC [15]	MIC [16]	MIC [17]	MIC [18]	also measured
O=C(Nc1nc(-c2ccccc2)co1)c1ccccc1 [Compound 20b]	500 µM (≈ 132 µg/mL)	31.2 µg/mL (≈ 118 µM)	500 µM (≈ 132 µg/mL)	500 µM (≈ 132 µg/mL)	125 µg/mL (≈ 473 µM)	500 µM (≈ 132 µg/mL)	143 to 145 °C	500 µM (≈ 132 µg/mL)	500 µM (≈ 132 µg/mL)	> 500 µM	330 µM	250 µM (≈ 66.1 µg/mL)	> 500 µM	> 500 µM	500 µM (≈ 132 µg/mL)	250 µM (≈ 66.1 µg/mL)	31.2 µg/mL (≈ 118 µM)	500 µM (≈ 132 µg/mL)	250 µM (≈ 66.1 µg/mL)	500 µM (≈ 132 µg/mL)	MIC [19, 22]: 62.5 µg/mL; MIC ([20]; resazurin after 96 h): 31.2 µg/mL (≈ 118 µM); log k’w [21]: 2.090
Cc1cc(C(=O)Nc2ncco2)ccn1 [Compound 5b]	> 125 µM	15.6 µg/mL (≈ 76.9 µM)	> 125 µM	> 500 µM	250 µg/mL (≈ 1230 µM)	> 125 µM	149 to 152 °C	> 500 µM	> 125 µM	> 500 µM	> 1000 µM	> 500 µM	> 500 µM	> 500 µM	> 125 µM	> 125 µM	62.5 µg/mL (≈ 308 µM)	> 125 µM	> 500 µM	> 125 µM	SI (HepG2 cells): >52.0; MIC [19, 22]: 3.91 µg/mL; MIC [19, 23]: 19.2 µM; MIC ([20]; resazurin after 96 h): 31.2 µg/mL (≈ 154 µM); log k’w [21]: 0.714; logkw [21]: 0.714
O=C(Nc1nccs1)c1ccncc1 [Compound 3a]	> 500 µM	≥ 500 µg/mL	> 500 µM	> 500 µM	≥ 500 µg/mL	> 500 µM	194 to 195 °C	> 500 µM	> 500 µM	> 500 µM	> 1000 µM	> 500 µM	> 500 µM	> 500 µM	> 500 µM	> 500 µM	≥ 500 µg/mL	> 500 µM	> 500 µM	> 500 µM	MIC [19, 22]: 250 µg/mL; MIC ([20]; resazurin after 96 h): 250 µg/mL (≈ 1220 µM); log k’w [21]: 1.306; logkw [21]: 1.306
O=C(Nc1nc(-c2ccccc2)cs1)c1ccccn1 [Compound 11a]	> 500 µM	≥ 500 µg/mL	> 500 µM	> 500 µM	≥ 500 µg/mL	> 500 µM	128 to 130 °C	> 500 µM	> 500 µM	> 500 µM	> 100 µM	> 500 µM	> 500 µM	> 500 µM	> 500 µM	> 500 µM	≥ 500 µg/mL	> 500 µM	> 500 µM	> 500 µM	SI (HepG2 cells): >7.2; Mtb H37Ra MIC [19, 24]: 3.91 µg/mL; MIC [19, 22]: 3.91 to 7.81 µg/mL; MIC [19, 23]: 13.9 µM; MIC ([20]; 96 h): 3.91 µg/mL (≈ 13.9 µM); log k’w [21]: 3.102; logkw [21]: 3.102
Cc1cncc(C(=O)Nc2ncco2)c1 [Compound 4b]	> 500 µM	31.2 µg/mL (≈ 154 µM)	> 500 µM	500 µM (≈ 102 µg/mL)	≥ 500 µg/mL	> 500 µM	171 to 175 °C	500 µM (≈ 102 µg/mL)	> 500 µM	> 500 µM	> 1000 µM	500 µM (≈ 102 µg/mL)	> 500 µM	> 500 µM	> 500 µM	> 500 µM	125 µg/mL (≈ 615 µM)	> 500 µM	500 µM (≈ 102 µg/mL)	> 500 µM	SI (HepG2 cells): >26.0; MIC [19, 22]: 7.81 µg/mL; MIC [19, 23]: 38.4 µM; MIC ([20]; resazurin after 96 h): 62.5 µg/mL (≈ 308 µM); log k’w [21]: 0.888; logkw [21]: 0.8881
O=C(Nc1nc(-c2ccccc2)co1)c1ccccn1 [Compound 11b]	500 µM (≈ 133 µg/mL)	31.2 µg/mL (≈ 118 µM)	125 µM (≈ 33.2 µg/mL)	500 µM (≈ 133 µg/mL)	125 µg/mL (≈ 471 µM)	500 µM (≈ 133 µg/mL)	107 to 109 °C	> 500 µM	500 µM (≈ 133 µg/mL)	> 500 µM	883 µM	500 µM (≈ 133 µg/mL)	> 500 µM	> 500 µM	500 µM (≈ 133 µg/mL)	62.5 µM (≈ 16.6 µg/mL)	31.2 µg/mL (≈ 118 µM)	500 µM (≈ 133 µg/mL)	125 µM (≈ 33.2 µg/mL)	500 µM (≈ 133 µg/mL)	SI (HepG2 cells): >67.8; Mtb H37Ra MIC [19, 24]: 3.91 µg/mL; MIC [19, 22]: 3.91 to 7.81 µg/mL; MIC ([19]; read-out: MICH37Ra, recalculated from µg/mL): 14.7 µM; MIC ([20]; 96 h): 3.91 µg/mL (≈ 14.7 µM); log k’w [21]: 2.038; logkw [21]: 2.038
Cc1cc(C(=O)Nc2nccs2)cc(Cl)n1 [Compound 7a]	> 125 µM	≥ 500 µg/mL	> 125 µM	> 500 µM	≥ 500 µg/mL	> 125 µM	198.6 °C	> 500 µM	> 125 µM	> 500 µM	> 250 µM	> 500 µM	> 500 µM	> 500 µM	> 125 µM	> 125 µM	≥ 500 µg/mL	> 125 µM	> 500 µM	> 125 µM	MIC [19, 22]: ≥ 500 µg/mL; MIC ([20]; resazurin after 96 h): ≥ 500 µg/mL; log k’w [21]: 2.319; logkw [21]: 2.319
O=C(Nc1nccs1)c1cnc2ccccc2n1 [Compound 10a]	> 500 µM	≥ 250 µg/mL	> 500 µM	> 500 µM	≥ 250 µg/mL	> 500 µM	251.4 °C	> 500 µM	> 500 µM	> 500 µM	> 50 µM	> 500 µM	> 500 µM	> 500 µM	> 500 µM	> 500 µM	≥ 250 µg/mL	> 500 µM	> 500 µM	> 500 µM	MIC [19, 22]: ≥ 250 µg/mL; MIC ([20]; resazurin after 96 h): 7.81 µg/mL (≈ 30.5 µM); log k’w [21]: 2.530; logkw [21]: 2.53
